# Reference: article PMC3561363, “A Novel Retro-Inverso Peptide Inhibitor Reduces Amyloid Deposition, Oxidation and Inflammation and Stimulates Neurogenesis in the APPswe/PS1ΔE9 Mouse Model of Alzheimer’s Disease” (PLoS ONE, 2013)
# Tests used:
# Drosophila = tested on: Drosophila; parameters: method as in PMID 20559435; conditions: cited from earlier work
# [1] = tested on: soluble Aβ and β-amyloid plaque deposits in mice; parameters: method as in PMID 22323736; conditions: oral administration, cited from earlier work
# Aβ = tested on: Aβ; parameters: method as in 2 sources, ref 16 = [16]; PMID 20230062; doi:10.1021/bi100144m; 16 Taylor M , Moore S , Mayes J , Parkin E , Beeg M , et al ( 2010 ) Development of a proteolytically stable retro-inverso peptide inhibitor of β-amyloid oligomerization as a potential novel treatment ||| ref 5, 52 = [5]; PMID 19605645; doi:10.1523/JNEUROSCI.1071-09.2009; 5 Ma QL , Yang F , Rosario ER , Ubeda OJ , Beech W , et al ( 2009 ) β-amyloid oligomers induce phosphorylation of tau and inactivation of insulin receptor substrate via c-Jun N-terminal kinase signali || [52]; PMID 15590663; doi:10.1074/jbc.M404751200; 52 Yang F , Lim GP , Begum AN , Ubeda OJ , Simmons MR , et al ( 2005 ) Curcumin inhibits formation of amyloid β oligomers and fibrils, binds plaques, and reduces amyloid in vivo . J Biol Chem 280 : 58; conditions: cited from earlier work
# [2] = parameters: method as in earlier work; conditions: no reference given; 53 concern derivatives; cited from earlier work
# AD patients = conditions: cited from earlier work
# Aβ42 = test: Thioflavin T (ThT) assay for Aβ fibrils; type: biochemical; conditions: ThT, 25 µM Aβ42, 48 h; figure title
# Method: This method was the same as that published previously. Briefly, 60 µl samples of solutions containing Aβ42 (25 µM), ThT (15 µM) and between 0 and 125 µM RI-OR2 or RI-OR2–TAT, in 10 mM phosphate buffered saline (PBS), pH 7.4, were incubated in sealed, black, clear-bottomed 384-well plates (Corning). ThT fluorescence was monitored every 10 mins (λex = 442 nm, λem = 483 nm) for 48 h at 30°C in a Biotek Synergy 2 plate reader.
# [3] = target: immobilized Aβ(1–42) (Aβ42) monomers, oligomers and fibrils; parameters: method as in PMID 20230062; conditions: SPR; cited from earlier work
# cultured cells = tested on: cultured cells; parameters: method as in PMID 20230062; conditions: cited from earlier work
# SHSY-5Y cells = test: Cell penetration of fluorescein-tagged peptides, microscopy; conditions: 1 µM
# APP/PS1 transgenic mice = test: Blood brain barrier penetration and brain localisation after i.p. injection; type: in vivo, mouse; conditions: 100 nmol/kg i.p., 1 h, 17-month old APP/PS1 mice
# Method: APPswe/PS1ΔE9 mice with a C57Bl/6 background (APP/PS1 mice) were obtained from the Jackson lab (http://research.jax.org/repository/alzheimers.html). […] To look at the effects of RI-OR2-TAT on mouse brain pathology (experiment 2), 8 female 10-months-old APP/PS1 mice were used. The animals were housed in single cages in a temperature controlled holding room (21.5°C±1) with 12∶12 h light and dark cycle. Food and water was available ad libitum.
# The animals were then housed in a dark room. After 1 h, the animals were anaesthetised with isoflurane and sodium barbiturate (Dolethal, Bayer, Germany), transcardially perfused and the brains were retrieved and fixed in 4% ice cold paraformaldehyde.
# For experiment 1 (BBB penetration), individual sections were incubated with the following primary antibodies at 4°C overnight: anti-Aβ (1∶200 dilution, Invitrogen, 71–5800), or anti-Iba 1 (1∶1000 dilution, Wako 016-20001, Germany). Sections were then stained with goat anti-rabbit Alexa Fluor 555 (1∶150 dilution, A21428 Invitrogen) for 1 h.
# All sections were visualized using an Axio Scope 1 fluorescence microscope (Zeiss, Germany). For quantification, two images per section were taken from the cortex area with a 10X objective for 8-oxo guanine and β-amyloid staining, and a 100X objective for Iba1 staining, with a minimum of 5 sections visualized per animal. […]
compound,measurement,setting,value
"O=C1C=C(N[C@@H](Cc2c[nH]c3ccccc23)C(=O)O)C(=O)c2ccccc21 [NQTrp, 1,4-naphthoquinon-2-yl-L-tryptophan]",phenotypic changes in Drosophila AD model,Drosophila,reversed phenotypic changes in Drosophila
C=C(c1ccc(C(=O)O)cc1)c1cc2c(cc1C)C(C)(C)CCC2(C)C [bexarotene],clearance of soluble Aβ,[1]; apoE-mediated mechanisms,enhance clearance of soluble Aβ
same,β-amyloid plaque deposits,[1],reduce β-amyloid plaque deposits in mice
"COc1cc(/C=C/C(=O)CC(=O)/C=C/c2ccc(O)c(OC)c2)ccc1O [curcumin, reference compound]",inhibition of Aβ aggregation,Aβ,effective inhibitor of Aβ aggregation
same,bioavailability,[2],poor bioavailability
"AN1792: pre-aggregated Aβ42, first clinical trial of immunisation",adverse effects in first clinical trial,"AD patients; human, in vivo",adverse effects involving detrimental T-cell-mediated brain inflammation
Ac-rGffvlkGr-NH2 [RI-OR2],inhibition of Aβ42 aggregation (Fig. 1),Aβ42,inhibit the aggregation of Aβ42
same,Kd,[3],9 to 29 µM
same,inhibition of Aβ oligomer and fibril formation in vitro,Aβ,blocks the formation of Aβ oligomers and fibrils in vitro
same,effect on Aβ toxicity to cultured cells,cultured cells,inhibits the toxic effects of Aβ on cultured cells
Solanezumab: Solanezumab (Eli Lilly),Phase III trial outcome,"AD patients; mild-to-moderate AD, ref presented at CTAD 2012",did not achieve key Phase III trial goals of improved cognition and function
fluorescein-rGffvlkGr-NH2 [Flu-RI-OR2],cell uptake (fluorescence localisation),SHSY-5Y cells; 1 h,remained in the culture medium
fluorescein-rGffvlkGrrrrqrrkkrGy-NH2 [Flu-RI-OR2-TAT],localisation relative to activated microglia,APP/PS1 transgenic mice; AlexaFluor 555 anti-Iba 1,found inside activated microglial cells
same,localisation relative to amyloid plaques,"APP/PS1 transgenic mice; cerebral cortex, AlexaFluor 555 anti-Aβ",co-localised with amyloid plaques
same,cell uptake (fluorescence localisation),SHSY-5Y cells; 10 mins,build up of fluorescence inside the cells
